Measurements taken from patent US9708314B2, “Heterocyclic amide compound” (NISSAN CHEMICAL INDUSTRIES, LTD., priority 2013, dated 2017).

Columns and labels:
Format in all cases: in vivo
Cyperus difformis = assay: Test Example 3: herbicidal effect by application to foliage (Wagner pot, water depth 0.1-0.5 cm); settings: Nineteenth Table; application to foliage; application herbicide amount 320 g/ha
Procedure, shortened: (§1)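 Visual 0–5 rating of herbicidal ratio, taken 3 weeks after foliar spray of a diluted emulsion formulation at rates expressed as g/ha. Plants had been sown in alluvial soil under 0.1–0.5 cm water and grown 14 days at 25–30 °C under glass before application.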

[1] = test system: Echinochloa crus-galli var. crus-galli; assay: as above; settings: Nineteenth Table; application to foliage; application herbicide amount 320 g/ha
Procedure, shortened: as §1

Leptochloa chinensis = assay: as above; settings: Nineteenth Table; application to foliage; application herbicide amount 320 g/ha
Procedure, shortened: as §1

Abutilon theophrasti = assay: Test Example 4: herbicidal effect by application to foliage (diluvial soil, plastic box); settings: application to foliage; for M: herbicidal effect on Abutilon theophrasti: application herbicide amount 320 g/ha; for herbicidal effect, M (Abutilon theophrasti): 320 g/ha
Procedure, shortened: (§2)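 Plants were grown in sterilized diluvial soil in a greenhouse at 25-30° C for 14 days, then sprayed on stems and leaves with water-diluted emulsion formulation at set rates in g/ha. Weed control and crop injury were scored 3 weeks after treatment on a 0-5 herbicidal-ratio scale, from 0 (≤5%) to 5 (≥90%).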

Alopecurus myosuroides = assay: as above; settings: application to foliage; for J: herbicidal effect on Alopecurus myosuroides: application herbicide amount 320 g/ha; for herbicidal effect, J (Alopecurus myosuroides): 320 g/ha
Procedure, shortened: as §2

Amaranthus retroflexus = assay: as above; settings: application to foliage; for N: herbicidal effect on Amaranthus retroflexus: application herbicide amount 320 g/ha; for herbicidal effect, N (Amaranthus retroflexus): 320 g/ha
Procedure, shortened: as §2

Apera spica-venti. = assay: as above; settings: application to foliage; for L: herbicidal effect on Apera spica-venti.: application herbicide amount 320 g/ha; for herbicidal effect, L (Apera spica-venti.): 320 g/ha
Procedure, shortened: as §2

Avena fatua = assay: as above; settings: application to foliage; for I: herbicidal effect on Avena fatua: application herbicide amount 320 g/ha; for herbicidal effect, I (Avena fatua): 320 g/ha
Procedure, shortened: as §2

Chenopodium album = assay: as above; settings: application to foliage; for O: herbicidal effect on Chenopodium album: application herbicide amount 320 g/ha; for herbicidal effect, O (Chenopodium album): 320 g/ha
Procedure, shortened: as §2

Digitaria ciliaris = assay: as above; settings: application to foliage; for F: herbicidal effect on Digitaria ciliaris: application herbicide amount 320 g/ha; for herbicidal effect, F (Digitaria ciliaris): 320 g/ha
Procedure, shortened: as §2

[2] = test system: Echinochloa crus-galli var. crus-galli; assay: as above; settings: application to foliage; for H: herbicidal effect on Echinochloa crus-galli var. crus-galli: application herbicide amount 320 g/ha; for herbicidal effect, H (Echinochloa crus-galli var. crus-galli): 320 g/ha
Procedure, shortened: as §2

Galium spurium = assay: as above; settings: application to foliage; for Q: herbicidal effect on Galium spurium: application herbicide amount 320 g/ha; for herbicidal effect, Q (Galium spurium): 320 g/ha
Procedure, shortened: as §2

Lolium multiflorum Lam. = assay: as above; settings: application to foliage; for K: herbicidal effect on Lolium multiflorum Lam.: application herbicide amount 320 g/ha; for herbicidal effect, K (Lolium multiflorum Lam.): 320 g/ha
Procedure, shortened: as §2

Setaria viridis = assay: as above; settings: application to foliage; for G: herbicidal effect on Setaria viridis: application herbicide amount 320 g/ha; for herbicidal effect, G (Setaria viridis): 320 g/ha
Procedure, shortened: as §2

Stellaria media = assay: as above; settings: application to foliage; for P: herbicidal effect on Stellaria media: application herbicide amount 320 g/ha; for herbicidal effect, P (Stellaria media): 320 g/ha
Procedure, shortened: as §2

Veronica persica = assay: as above; settings: application to foliage; for R: herbicidal effect on Veronica persica: application herbicide amount 320 g/ha; for herbicidal effect, R (Veronica persica): 320 g/ha
Procedure, shortened: as §2

[3] = test system: directly sowed Oryza sativa; assay: Test Example 3: effect on crop by application to foliage (Wagner pot, water depth 0.1-0.5 cm); settings: Nineteenth Table; application to foliage; application herbicide amount 320 g/ha
Procedure, shortened: as §1

Compound	E (herbicidal effect grade) (Cyperus difformis)	H (herbicidal effect grade) [1]	D (herbicidal effect grade) (Leptochloa chinensis)	M: herbicidal effect on Abutilon theophrasti (Abutilon theophrasti)	J: herbicidal effect on Alopecurus myosuroides (Alopecurus myosuroides)	N: herbicidal effect on Amaranthus retroflexus (Amaranthus retroflexus)	L: herbicidal effect on Apera spica-venti. (Apera spica-venti.)	herbicidal effect, M (Abutilon theophrasti) (Abutilon theophrasti)	herbicidal effect, J (Alopecurus myosuroides) (Alopecurus myosuroides)	herbicidal effect, N (Amaranthus retroflexus) (Amaranthus retroflexus)	herbicidal effect, L (Apera spica-venti.) (Apera spica-venti.)	herbicidal effect, I (Avena fatua) (Avena fatua)	herbicidal effect, O (Chenopodium album) (Chenopodium album)	herbicidal effect, F (Digitaria ciliaris) (Digitaria ciliaris)	herbicidal effect, H (Echinochloa crus-galli var. crus-galli) [2]	herbicidal effect, Q (Galium spurium) (Galium spurium)	herbicidal effect, K (Lolium multiflorum Lam.) (Lolium multiflorum Lam.)	herbicidal effect, G (Setaria viridis) (Setaria viridis)	herbicidal effect, P (Stellaria media) (Stellaria media)	herbicidal effect, R (Veronica persica) (Veronica persica)	further results
Cc1nnc(NC(=O)c2ccc(C(F)(F)F)n3c(SCc4ccc(Cl)nc4)nnc23)o1 [1-156]	2 (Herbicidal ratio of 20% or more and less than 40%)	3 (Herbicidal ratio of 40% or more and less than 70%)	2 (Herbicidal ratio of 20% or more and less than 40%)	3 (Herbicidal ratio of 40% or more and less than 70%)	1 (Herbicidal ratio of 5% or more and less than 20%)	3 (Herbicidal ratio of 40% or more and less than 70%)	2 (Herbicidal ratio of 20% or more and less than 40%)														I: herbicidal effect on Avena fatua (Avena fatua): 1 (Herbicidal ratio of 5% or more and less than 20%); O: herbicidal effect on Chenopodium album (Chenopodium album): 5 (Herbicidal ratio of 90% or more (almost completely withered)); F: herbicidal effect on Digitaria ciliaris (Digitaria ciliaris): 2 (Herbicidal ratio of 20% or more and less than 40%); H: herbicidal effect on Echinochloa crus-galli var. crus-galli [2]: 4 (Herbicidal ratio of 70% or more and less than 90%); Q: herbicidal effect on Galium spurium (Galium spurium): 1 (Herbicidal ratio of 5% or more and less than 20%); K: herbicidal effect on Lolium multiflorum Lam. (Lolium multiflorum Lam.): 1 (Herbicidal ratio of 5% or more and less than 20%); G: herbicidal effect on Setaria viridis (Setaria viridis): 1 (Herbicidal ratio of 5% or more and less than 20%); P: herbicidal effect on Stellaria media (Stellaria media): 4 (Herbicidal ratio of 70% or more and less than 90%); R: herbicidal effect on Veronica persica (Veronica persica): 3 (Herbicidal ratio of 40% or more and less than 70%)
COc1ccc(N(C)c2nnc3c(C(=O)Nc4nnco4)ccc(C(F)(F)F)n23)cc1 [1-171]		4 (Herbicidal ratio of 70% or more and less than 90%)	4 (Herbicidal ratio of 70% or more and less than 90%)	4 (Herbicidal ratio of 70% or more and less than 90%)	0 (Herbicidal ratio of 5% or less (almost no effect))	4 (Herbicidal ratio of 70% or more and less than 90%)	1 (Herbicidal ratio of 5% or more and less than 20%)														b (effect on crop grade) [3]: 0 (Herbicidal ratio of 5% or less (almost no effect)); I: herbicidal effect on Avena fatua (Avena fatua): 0 (Herbicidal ratio of 5% or less (almost no effect)); O: herbicidal effect on Chenopodium album (Chenopodium album): 5 (Herbicidal ratio of 90% or more (almost completely withered)); F: herbicidal effect on Digitaria ciliaris (Digitaria ciliaris): 3 (Herbicidal ratio of 40% or more and less than 70%); H: herbicidal effect on Echinochloa crus-galli var. crus-galli [2]: 5 (Herbicidal ratio of 90% or more (almost completely withered)); Q: herbicidal effect on Galium spurium (Galium spurium): 2 (Herbicidal ratio of 20% or more and less than 40%); K: herbicidal effect on Lolium multiflorum Lam. (Lolium multiflorum Lam.): 0 (Herbicidal ratio of 5% or less (almost no effect)); G: herbicidal effect on Setaria viridis (Setaria viridis): 3 (Herbicidal ratio of 40% or more and less than 70%); P: herbicidal effect on Stellaria media (Stellaria media): 5 (Herbicidal ratio of 90% or more (almost completely withered)); R: herbicidal effect on Veronica persica (Veronica persica): 3 (Herbicidal ratio of 40% or more and less than 70%)
C=CCn1nnnc1NC(=O)c1ccc(C(F)(F)F)n2c(C(C)C)nnc12 [2-091]	4 (Herbicidal ratio of 70% or more and less than 90%)	5 (Herbicidal ratio of 90% or more (almost completely withered))	3 (Herbicidal ratio of 40% or more and less than 70%)					4 (Herbicidal ratio of 70% or more and less than 90%)	2 (Herbicidal ratio of 20% or more and less than 40%)	4 (Herbicidal ratio of 70% or more and less than 90%)	3 (Herbicidal ratio of 40% or more and less than 70%)	3 (Herbicidal ratio of 40% or more and less than 70%)	5 (Herbicidal ratio of 90% or more (almost completely withered))	5 (Herbicidal ratio of 90% or more (almost completely withered))	5 (Herbicidal ratio of 90% or more (almost completely withered))	4 (Herbicidal ratio of 70% or more and less than 90%)	3 (Herbicidal ratio of 40% or more and less than 70%)	5 (Herbicidal ratio of 90% or more (almost completely withered))	5 (Herbicidal ratio of 90% or more (almost completely withered))	4 (Herbicidal ratio of 70% or more and less than 90%)	
CC(C)c1nnc2c(C(=O)Nc3nnnn3Cc3ccc(Cl)cc3)ccc(C(F)(F)F)n12 [2-093]	5 (Herbicidal ratio of 90% or more (almost completely withered))	1 (Herbicidal ratio of 5% or more and less than 20%)	2 (Herbicidal ratio of 20% or more and less than 40%)					3 (Herbicidal ratio of 40% or more and less than 70%)	1 (Herbicidal ratio of 5% or more and less than 20%)	2 (Herbicidal ratio of 20% or more and less than 40%)	1 (Herbicidal ratio of 5% or more and less than 20%)	1 (Herbicidal ratio of 5% or more and less than 20%)	5 (Herbicidal ratio of 90% or more (almost completely withered))	1 (Herbicidal ratio of 5% or more and less than 20%)	1 (Herbicidal ratio of 5% or more and less than 20%)	2 (Herbicidal ratio of 20% or more and less than 40%)	1 (Herbicidal ratio of 5% or more and less than 20%)	0 (Herbicidal ratio of 5% or less (almost no effect))	5 (Herbicidal ratio of 90% or more (almost completely withered))	2 (Herbicidal ratio of 20% or more and less than 40%)	
C#CCN(C)c1nnc2c(C(=O)Nc3nnnn3C)ccc(C(F)(F)F)n12 [2-094]	5 (Herbicidal ratio of 90% or more (almost completely withered))	5 (Herbicidal ratio of 90% or more (almost completely withered))	5 (Herbicidal ratio of 90% or more (almost completely withered))					5 (Herbicidal ratio of 90% or more (almost completely withered))	1 (Herbicidal ratio of 5% or more and less than 20%)	4 (Herbicidal ratio of 70% or more and less than 90%)	3 (Herbicidal ratio of 40% or more and less than 70%)	2 (Herbicidal ratio of 20% or more and less than 40%)	5 (Herbicidal ratio of 90% or more (almost completely withered))	4 (Herbicidal ratio of 70% or more and less than 90%)	5 (Herbicidal ratio of 90% or more (almost completely withered))	3 (Herbicidal ratio of 40% or more and less than 70%)	1 (Herbicidal ratio of 5% or more and less than 20%)	4 (Herbicidal ratio of 70% or more and less than 90%)	5 (Herbicidal ratio of 90% or more (almost completely withered))	4 (Herbicidal ratio of 70% or more and less than 90%)	
CN(CCC#N)c1nnc2c(C(=O)Nc3nnnn3C)ccc(C(F)(F)F)n12 [2-095]	5 (Herbicidal ratio of 90% or more (almost completely withered))	5 (Herbicidal ratio of 90% or more (almost completely withered))	5 (Herbicidal ratio of 90% or more (almost completely withered))					5 (Herbicidal ratio of 90% or more (almost completely withered))	4 (Herbicidal ratio of 70% or more and less than 90%)	5 (Herbicidal ratio of 90% or more (almost completely withered))	5 (Herbicidal ratio of 90% or more (almost completely withered))	4 (Herbicidal ratio of 70% or more and less than 90%)	5 (Herbicidal ratio of 90% or more (almost completely withered))	5 (Herbicidal ratio of 90% or more (almost completely withered))	5 (Herbicidal ratio of 90% or more (almost completely withered))	4 (Herbicidal ratio of 70% or more and less than 90%)	3 (Herbicidal ratio of 40% or more and less than 70%)	5 (Herbicidal ratio of 90% or more (almost completely withered))	5 (Herbicidal ratio of 90% or more (almost completely withered))	4 (Herbicidal ratio of 70% or more and less than 90%)	
